Reference: ChEMBL document CHEMBL6120973 (J Med Chem, 2024)
In brackets after ≈: the same amount, converted by molar mass.

Columns and labels:
Cytochrome P450 2C9 = Cytochrome P450 2C9 (Homo sapiens, UniProt P11712); test: Inhibition of CYP2C9 in human liver microsomes preincubated for 10 mins followed by NADPH addition and measured after 15 mins by LC/MS/MS analysis
[1] = Cytotoxicity against human MT4 cells assessed as reduction in cell viability measured after 5 days by MTT assay; settings: MT4 cells
[2] = Solubility of compound in phosphate buffer at pH 2.0 measured after 24 hrs by HPLC analysis; assay type: physicochemical
Cytochrome P450 2C19 = Cytochrome P450 2C19 (Homo sapiens, UniProt P33261); test: Inhibition of CYP2C19 in human liver microsomes preincubated for 10 mins followed by NADPH addition and measured after 15 mins by LC/MS/MS analysis
[3] = Metabolic stability in human liver microsomes assessed as half-life at 0.1 uM preincubated for 10 mins followed by NADPH addition and measured upto 60 mins by LC-MS/MS analysis; assay type: ADME, Microsome; settings: time < 70 min
[4] = system: Human immunodeficiency virus 1; test: Antiviral activity against HIV-1 harboring RT L100I mutant infected in human MT4 cells assessed as protection against virus-induced cytopathic effect incubated for 5 days by MTT assay; assay type: functional, organism-based; settings: Human immunodeficiency virus 1, MT4, 120 h
[5] = Acute toxicity in male ICR mouse assessed as effect on pathological damage in kidney at 2000 mg/kg, IG measured after 14 days by H and E staining based analysis; assay type: organism-based; settings: in vivo, po, 336 h, time 14 day
[6] = Acute toxicity in female ICR mouse assessed as effect on pathological damage in lung at 2000 mg/kg, IG measured after 14 days by H and E staining based analysis; assay type: organism-based; settings: in vivo, po, 336 h, time 14 day
[7] = system: Human immunodeficiency virus 1; test: Antiviral activity against HIV-1 harboring RT Y181C mutant infected in human MT4 cells assessed as protection against virus-induced cytopathic effect incubated for 5 days by MTT assay; assay type: functional, organism-based; settings: Human immunodeficiency virus 1, MT4, 120 h
[8] = Acute toxicity in female ICR mouse assessed as effect on pathological damage in brain at 2000 mg/kg, IG measured after 14 days by H and E staining based analysis; assay type: organism-based; settings: in vivo, po, 336 h, time 14 day
[9] = system: Human immunodeficiency virus 1; test: Antiviral activity against HIV-1 harboring RT E138K mutant infected in human MT4 cells assessed as protection against virus-induced cytopathic effect incubated for 5 days by MTT assay; assay type: functional, organism-based; settings: Human immunodeficiency virus 1, MT4, 120 h
Cytochrome P450 2D6 = Cytochrome P450 2D6 (Homo sapiens, UniProt P10635); test: Inhibition of CYP2D6 in human liver microsomes preincubated for 10 mins followed by NADPH addition and measured after 15 mins by LC/MS/MS analysis
[10] = system: Human immunodeficiency virus 1; test: Antiviral activity against HIV-1 harboring RT K103N mutant infected in human MT4 cells assessed as protection against virus-induced cytopathic effect incubated for 5 days by MTT assay; assay type: functional, organism-based; settings: Human immunodeficiency virus 1, MT4, 120 h
[11] = Acute toxicity in female ICR mouse assessed as effect on body weight at 2000 mg/kg, IG measured after 14 days; assay type: organism-based; settings: in vivo, po, 336 h, time 14 day
[12] = system: Human immunodeficiency virus 1; test: Potency index, ratio of 4-(8-(3-nitrophenyl)-1,7-naphthyridin-6-yl)benzoic acid MIC to test compound MIC for antiviral activity against wildtype HIV-1 IIIB infected in human MT4 cells assessed as protection against virus-induced cytopathic effect incubated for 5 days by MTT assay; assay type: functional; settings: time 5 day
[13] = Metabolic stability in dog liver microsomes assessed as half-life at 0.1 uM preincubated for 10 mins followed by NADPH addition and measured upto 60 mins by LC-MS/MS analysis; assay type: ADME, Canis lupus familiaris, Microsome; settings: time < 70 min
[14] = Acute toxicity in male ICR mouse assessed as effect on pathological damage in spleen at 2000 mg/kg, IG measured after 14 days by H and E staining based analysis; assay type: organism-based; settings: in vivo, po, 336 h, time 14 day
Cytochrome P450 3A4 [15] = target: T1, Cytochrome P450 3A4 (Homo sapiens, UniProt P08684); test: Inhibition of CYP3A4 in human liver microsomes using midazolam as substrate preincubated for 10 mins followed by NADPH addition and measured after 15 mins by LC/MS/MS analysis
[16] = Solubility of compound in phosphate buffer at pH 7.4 measured after 24 hrs by HPLC analysis; assay type: physicochemical
[17] = Acute toxicity in male ICR mouse assessed as effect on pathological damage in liver at 2000 mg/kg, IG measured after 14 days by H and E staining based analysis; assay type: organism-based; settings: in vivo, po, 336 h, time 14 day
[18] = Selectivity index, ratio of CC50 for human MT4 cells to EC50 for wild type HIV-1 IIIB infected in human MT4 cellS; settings: MT4 cells
[19] = Metabolic stability in rat liver microsomes assessed as half-life at 0.1 uM preincubated for 10 mins followed by NADPH addition and measured upto 60 mins by LC-MS/MS analysis; assay type: ADME, Microsome; settings: time < 70 min
[20] = Acute toxicity in male ICR mouse assessed as effect on body weight at 2000 mg/kg, IG measured after 14 days; assay type: organism-based; settings: in vivo, po, 336 h, time 14 day
Cytochrome P450 3A4 [21] = target: T1, Cytochrome P450 3A4; test: Inhibition of CYP3A4 in human liver microsomes using testosterone as substrate preincubated for 10 mins followed by NADPH addition and measured after 15 mins by LC/MS/MS analysis
[22] = target: Human immunodeficiency virus type 1 reverse transcriptase (Human immunodeficiency virus 1, UniProt Q72547); test: Inhibition of recombinant wild type HIV-1 Reverse transcriptase incubated for 40 mins by Pico-green reagent based fluorescence analysis
[23] = Acute toxicity in female ICR mouse assessed as effect on pathological damage in liver at 2000 mg/kg, IG measured after 14 days by H and E staining based analysis; assay type: organism-based; settings: in vivo, po, 336 h, time 14 day
[24] = Acute toxicity in female ICR mouse assessed as effect on pathological damage in kidney at 2000 mg/kg, IG measured after 14 days by H and E staining based analysis; assay type: organism-based; settings: in vivo, po, 336 h, time 14 day
[25] = system: Human immunodeficiency virus 1; test: Antiviral activity against HIV-1 harboring RT F227L/V106A double mutant infected in human MT4 cells assessed as protection against virus-induced cytopathic effect incubated for 5 days by MTT assay; assay type: functional, organism-based; settings: Human immunodeficiency virus 1, MT4, 120 h
[26] = Acute toxicity in female ICR mouse assessed as effect on behavior at 2000 mg/kg, IG measured after 14 days; assay type: organism-based; settings: in vivo, po, 336 h, time 14 day
[27] = system: Human immunodeficiency virus 1; test: Antiviral activity against HIV-1 harboring RT K103N/Y181C double mutant infected in human MT4 cells assessed as protection against virus-induced cytopathic effect incubated for 5 days by MTT assay; assay type: functional, organism-based; settings: Human immunodeficiency virus 1, MT4, 120 h
[28] = Solubility of compound in phosphate buffer at pH 7.0 measured after 24 hrs by HPLC analysis; assay type: physicochemical
[29] = Acute toxicity in female ICR mouse assessed as effect on pathological damage in heart at 2000 mg/kg, IG measured after 14 days by H and E staining based analysis; assay type: organism-based; settings: in vivo, po, 336 h, time 14 day
[30] = Acute toxicity in female ICR mouse assessed as effect on pathological damage in spleen at 2000 mg/kg, IG measured after 14 days by H and E staining based analysis; assay type: organism-based; settings: in vivo, po, 336 h, time 14 day
[31] = target: Voltage-gated inwardly rectifying potassium channel KCNH2 (Homo sapiens, UniProt Q12809); test: Inhibition of human ERG expressed in CHO cells at holding potential of -80 mV by automated patch clamp electrophysiological method; assay type: toxicity, cell-based
[32] = Solubility of compound in Watson's distilled pure water measured after 24 hrs by HPLC analysis; assay type: physicochemical
[33] = Acute toxicity in male ICR mouse assessed as effect on pathological damage in brain at 2000 mg/kg, IG measured after 14 days by H and E staining based analysis; assay type: organism-based; settings: in vivo, po, 336 h, time 14 day

T1 sequence (P08684 whole entry): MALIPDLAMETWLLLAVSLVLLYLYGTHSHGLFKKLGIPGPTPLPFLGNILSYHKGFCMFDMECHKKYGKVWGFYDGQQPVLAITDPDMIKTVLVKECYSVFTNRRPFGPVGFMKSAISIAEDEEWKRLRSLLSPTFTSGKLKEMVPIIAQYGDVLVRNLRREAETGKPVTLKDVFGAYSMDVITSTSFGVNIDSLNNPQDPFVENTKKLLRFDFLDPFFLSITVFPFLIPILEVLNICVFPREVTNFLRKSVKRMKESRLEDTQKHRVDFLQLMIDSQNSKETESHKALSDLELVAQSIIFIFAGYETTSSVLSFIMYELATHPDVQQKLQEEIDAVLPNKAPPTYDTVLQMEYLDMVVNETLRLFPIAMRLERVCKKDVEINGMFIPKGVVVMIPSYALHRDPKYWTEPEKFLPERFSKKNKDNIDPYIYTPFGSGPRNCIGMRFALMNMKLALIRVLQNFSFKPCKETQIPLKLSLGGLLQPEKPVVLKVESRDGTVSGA
Chain of Cytochrome P450 2C9 (P11712 whole entry): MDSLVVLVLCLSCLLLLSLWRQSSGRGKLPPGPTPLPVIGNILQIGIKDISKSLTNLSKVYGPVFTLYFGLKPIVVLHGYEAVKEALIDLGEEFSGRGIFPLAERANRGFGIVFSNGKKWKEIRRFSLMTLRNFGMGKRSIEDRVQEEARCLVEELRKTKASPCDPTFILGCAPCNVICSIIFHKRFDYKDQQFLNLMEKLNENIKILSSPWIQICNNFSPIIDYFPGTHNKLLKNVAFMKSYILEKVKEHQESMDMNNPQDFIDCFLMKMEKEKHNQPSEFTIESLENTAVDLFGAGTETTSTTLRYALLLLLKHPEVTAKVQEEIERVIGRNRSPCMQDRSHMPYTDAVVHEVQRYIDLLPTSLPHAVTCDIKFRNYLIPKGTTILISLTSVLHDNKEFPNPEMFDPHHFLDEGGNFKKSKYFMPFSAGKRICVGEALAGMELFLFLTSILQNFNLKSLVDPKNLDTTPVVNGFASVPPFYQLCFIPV
Chain of Cytochrome P450 2D6 (P10635 whole entry): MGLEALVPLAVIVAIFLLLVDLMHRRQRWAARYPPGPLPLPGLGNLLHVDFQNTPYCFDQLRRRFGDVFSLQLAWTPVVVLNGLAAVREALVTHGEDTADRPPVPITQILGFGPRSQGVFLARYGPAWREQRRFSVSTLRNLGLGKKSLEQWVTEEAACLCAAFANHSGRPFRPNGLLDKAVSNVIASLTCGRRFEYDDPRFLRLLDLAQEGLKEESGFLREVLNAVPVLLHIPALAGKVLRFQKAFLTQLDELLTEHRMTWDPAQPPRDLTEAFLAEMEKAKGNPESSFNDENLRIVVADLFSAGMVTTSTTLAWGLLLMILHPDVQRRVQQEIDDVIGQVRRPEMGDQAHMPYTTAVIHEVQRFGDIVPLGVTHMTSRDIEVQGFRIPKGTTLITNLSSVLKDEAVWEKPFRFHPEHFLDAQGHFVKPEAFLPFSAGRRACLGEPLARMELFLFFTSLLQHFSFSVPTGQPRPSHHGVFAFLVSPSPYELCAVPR
Chain of Cytochrome P450 2C19 (P33261 whole entry): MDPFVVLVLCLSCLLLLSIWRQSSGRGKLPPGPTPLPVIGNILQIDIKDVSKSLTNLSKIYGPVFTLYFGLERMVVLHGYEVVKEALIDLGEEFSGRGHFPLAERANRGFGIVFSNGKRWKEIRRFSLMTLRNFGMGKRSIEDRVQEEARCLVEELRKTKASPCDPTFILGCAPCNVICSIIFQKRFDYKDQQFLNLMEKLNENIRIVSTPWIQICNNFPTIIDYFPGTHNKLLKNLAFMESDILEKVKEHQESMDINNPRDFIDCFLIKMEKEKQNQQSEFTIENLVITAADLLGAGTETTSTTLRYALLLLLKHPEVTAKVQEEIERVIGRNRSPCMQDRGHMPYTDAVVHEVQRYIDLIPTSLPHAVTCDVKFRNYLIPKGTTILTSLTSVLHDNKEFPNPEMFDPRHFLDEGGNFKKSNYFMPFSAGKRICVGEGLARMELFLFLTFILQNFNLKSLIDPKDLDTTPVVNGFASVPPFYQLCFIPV
Chain of Voltage-gated inwardly rectifying potassium channel KCNH2 (Q12809 whole entry): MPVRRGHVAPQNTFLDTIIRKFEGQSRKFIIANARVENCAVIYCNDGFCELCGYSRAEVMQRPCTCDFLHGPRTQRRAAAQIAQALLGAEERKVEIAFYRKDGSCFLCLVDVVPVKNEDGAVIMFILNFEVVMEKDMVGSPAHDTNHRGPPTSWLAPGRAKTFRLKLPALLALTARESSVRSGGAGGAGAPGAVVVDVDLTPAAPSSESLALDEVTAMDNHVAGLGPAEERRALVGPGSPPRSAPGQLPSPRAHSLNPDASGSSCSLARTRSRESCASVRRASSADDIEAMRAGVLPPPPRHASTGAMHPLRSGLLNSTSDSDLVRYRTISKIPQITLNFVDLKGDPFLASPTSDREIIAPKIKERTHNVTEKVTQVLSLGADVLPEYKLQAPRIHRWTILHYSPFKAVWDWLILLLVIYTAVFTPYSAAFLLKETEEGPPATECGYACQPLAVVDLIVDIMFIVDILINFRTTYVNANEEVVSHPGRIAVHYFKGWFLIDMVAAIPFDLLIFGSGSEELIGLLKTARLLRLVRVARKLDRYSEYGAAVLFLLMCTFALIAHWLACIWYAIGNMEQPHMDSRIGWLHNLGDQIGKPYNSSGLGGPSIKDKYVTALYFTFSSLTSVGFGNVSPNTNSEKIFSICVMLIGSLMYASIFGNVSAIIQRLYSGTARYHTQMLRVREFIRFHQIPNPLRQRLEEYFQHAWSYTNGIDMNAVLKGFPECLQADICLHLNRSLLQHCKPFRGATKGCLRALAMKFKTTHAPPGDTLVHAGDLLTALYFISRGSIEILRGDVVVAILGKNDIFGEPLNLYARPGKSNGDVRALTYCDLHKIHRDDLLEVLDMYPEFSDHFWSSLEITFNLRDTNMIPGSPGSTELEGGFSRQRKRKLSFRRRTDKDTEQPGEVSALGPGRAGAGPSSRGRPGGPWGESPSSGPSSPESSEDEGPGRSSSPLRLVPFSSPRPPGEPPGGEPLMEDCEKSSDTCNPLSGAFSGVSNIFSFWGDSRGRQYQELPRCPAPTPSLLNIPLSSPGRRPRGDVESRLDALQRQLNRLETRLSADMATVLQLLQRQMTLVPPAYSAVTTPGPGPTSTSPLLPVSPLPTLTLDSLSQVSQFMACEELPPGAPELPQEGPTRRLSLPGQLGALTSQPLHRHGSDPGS

Question: Which results are given for Cc1cc(-c2ccncc2)cc(C)c1Nc1nc(Nc2ccc(C#N)cc2)ncc1-c1cn[nH]c1?
Answer: IC50 (Cytochrome P450 2C9): > 50000 nM; CC50 at 120 h [1]: > 273000 nM; solubility at 24 h [2]: 1190 µg/mL (≈ 2600 µM); IC50 (Cytochrome P450 2C19): > 50000 nM; half-life at 0.1 µM [3]: 29.9 min; EC50 [4]: 9 nM; Activity [5]: Non-toxic; Activity [6]: Non-toxic; EC50 [7]: 13 nM; Activity [8]: Non-toxic; EC50 [9]: 11 nM; IC50 (Cytochrome P450 2D6): > 50000 nM; EC50 [10]: 7 nM; Activity [11]: Non-toxic; Ratio [12]: 37; half-life at 0.1 µM [13]: 58.8 min; Activity [14]: Non-toxic; IC50 (Cytochrome P450 3A4 [15]): > 50000 nM; solubility at 24 h [16]: < 1 µg/mL; Activity [17]: Non-toxic; selectivity ratio [18]: > 52600; half-life at 0.1 µM [19]: 20.4 min; Activity [20]: Non-toxic; IC50 (Cytochrome P450 3A4 [21]): > 50000 nM; IC50 [22]: 49 nM; Activity [23]: Non-toxic; Activity [24]: Non-toxic; EC50 [25]: 79 nM; Activity [26]: Non-toxic; EC50 [27]: 42 nM; solubility at 24 h [28]: < 1 µg/mL; Activity [29]: Non-toxic; Activity [30]: Non-toxic; IC50 [31]: > 40000 nM; solubility at 24 h [32]: 1.3 µg/mL (≈ 2.84 µM); Activity [33]: Non-toxic
